# In article PMC9612005 (Pharmaceutics, 2022):
# How the values were obtained:
# [1] = molecular target: T1, cone CNG channels (CNGA3:CNGB3) (Homo sapiens, UniProt Q16281+Q9NQW8); experiment: Patch-clamp on inside-out patches, heterotetrameric cone CNG channels expressed in Xenopus laevis oocytes; type: cell-based; conditions: for effect on cGMP-activated cone CNG-channel activity: analogue(s) co-applied with cGMP (50 µM; combination 50 µM inhibitor + activator); for efficacy in activating cone CNG channels compared to cGMP: related to maximal cGMP-induced current; for EC50: concentration-activation relationship, Hill fit, read-out: EC50, cone CNG channels
# T1 construct: expressed in transfected cells; host or cells: Xenopus laevis oocytes (cRNA injection, pGEMHE vector); inside-out patches
# T1 sequence (Q16281 1-694): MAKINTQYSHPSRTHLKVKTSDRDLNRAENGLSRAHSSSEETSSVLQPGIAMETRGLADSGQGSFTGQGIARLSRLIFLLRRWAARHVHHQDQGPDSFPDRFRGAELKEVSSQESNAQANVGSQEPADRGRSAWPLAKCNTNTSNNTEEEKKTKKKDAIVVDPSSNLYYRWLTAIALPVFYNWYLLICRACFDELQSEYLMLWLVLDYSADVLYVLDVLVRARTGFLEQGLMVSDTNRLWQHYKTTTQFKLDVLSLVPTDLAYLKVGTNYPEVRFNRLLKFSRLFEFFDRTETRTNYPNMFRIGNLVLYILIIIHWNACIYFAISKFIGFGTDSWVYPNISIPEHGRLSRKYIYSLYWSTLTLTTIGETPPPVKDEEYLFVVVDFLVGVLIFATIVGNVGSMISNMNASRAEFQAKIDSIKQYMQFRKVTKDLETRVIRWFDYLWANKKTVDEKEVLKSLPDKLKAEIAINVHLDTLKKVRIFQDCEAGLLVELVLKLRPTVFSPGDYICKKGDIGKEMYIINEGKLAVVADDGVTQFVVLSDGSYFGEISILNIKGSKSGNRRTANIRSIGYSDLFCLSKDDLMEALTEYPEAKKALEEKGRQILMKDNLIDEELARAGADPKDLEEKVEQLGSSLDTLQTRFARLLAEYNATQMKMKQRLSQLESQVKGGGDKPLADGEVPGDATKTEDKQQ
# T1 sequence (Q9NQW8 1-809): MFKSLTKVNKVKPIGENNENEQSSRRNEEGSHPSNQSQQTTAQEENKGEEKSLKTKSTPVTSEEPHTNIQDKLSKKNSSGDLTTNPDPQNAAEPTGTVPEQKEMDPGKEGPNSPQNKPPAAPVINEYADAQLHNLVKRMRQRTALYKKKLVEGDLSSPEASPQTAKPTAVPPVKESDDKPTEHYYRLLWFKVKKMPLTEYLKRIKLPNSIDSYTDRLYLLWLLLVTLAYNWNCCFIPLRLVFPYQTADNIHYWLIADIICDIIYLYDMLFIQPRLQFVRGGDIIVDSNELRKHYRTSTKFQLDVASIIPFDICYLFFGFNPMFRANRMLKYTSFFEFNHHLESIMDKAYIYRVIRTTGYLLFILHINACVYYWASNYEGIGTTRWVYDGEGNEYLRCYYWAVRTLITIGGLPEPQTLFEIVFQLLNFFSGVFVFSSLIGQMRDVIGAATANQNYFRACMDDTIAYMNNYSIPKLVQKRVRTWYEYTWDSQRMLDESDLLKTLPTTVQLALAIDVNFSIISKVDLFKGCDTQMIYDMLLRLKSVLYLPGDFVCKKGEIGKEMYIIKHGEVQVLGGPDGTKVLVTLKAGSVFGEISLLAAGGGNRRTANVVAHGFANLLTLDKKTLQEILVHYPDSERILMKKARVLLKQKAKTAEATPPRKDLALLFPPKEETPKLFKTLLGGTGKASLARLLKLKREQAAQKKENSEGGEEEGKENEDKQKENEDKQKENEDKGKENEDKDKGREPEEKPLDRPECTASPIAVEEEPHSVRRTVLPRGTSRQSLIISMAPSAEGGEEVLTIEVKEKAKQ
# Description: (§1) The patch pipettes were pulled from borosilicate glass tubing (outer diameter 2.0 mm, inner diameter 1.0 mm; Hilgenberg GmbH, Malsfeld, Germany). The initial resistance of the solution-filled pipettes was 0.6–1.4 MΩ. […] For studying the activation and deactivation kinetics of CNG channels, we performed fast jumps between different ligand concentrations by means of a double-barreled θ-glass pipette mounted on a piezo-driven device, which was controlled by the computer. For measuring the time courses, the recording rate was 20 kHz.
# The activation and deactivation time courses were determined by fitting the respective current traces with single exponentials:(3) I(t)=A∗exp[−t/τ] where A is the amplitude, t the time, and τ the time constant for either activation or deactivation.
# [2] = molecular target: T2, rod CNG channels (CNGA1:CNGB1a) (Bos taurus, UniProt Q00194+Q28181); experiment: Patch-clamp on inside-out patches, heterotetrameric rod CNG channels expressed in Xenopus laevis oocytes; type: cell-based, bovine; conditions: for effect on cGMP-activated rod CNG-channel activity: analogue(s) co-applied with cGMP (50 µM; combination 50 µM inhibitor + activator); for efficacy in activating rod CNG channels compared to cGMP: related to maximal cGMP-induced current
# T2 construct: expressed in transfected cells; host or cells: Xenopus laevis oocytes (cRNA injection, pGEMHE vector); inside-out patches
# Description: as §1, with “kHz. […]” for “kHz.”
# CNG-channel in rods = test system: CNG-channel in rods; parameters: method as in PMID 8778280; conditions: previous study, ref [44]; cited from earlier work
# [3] = cGMP + 50 µM of the cGMP analogue
# [4] = 100 µM, +100 mV, activity triggered by 3 mM cGMP
# T2 sequence (Q00194 whole entry): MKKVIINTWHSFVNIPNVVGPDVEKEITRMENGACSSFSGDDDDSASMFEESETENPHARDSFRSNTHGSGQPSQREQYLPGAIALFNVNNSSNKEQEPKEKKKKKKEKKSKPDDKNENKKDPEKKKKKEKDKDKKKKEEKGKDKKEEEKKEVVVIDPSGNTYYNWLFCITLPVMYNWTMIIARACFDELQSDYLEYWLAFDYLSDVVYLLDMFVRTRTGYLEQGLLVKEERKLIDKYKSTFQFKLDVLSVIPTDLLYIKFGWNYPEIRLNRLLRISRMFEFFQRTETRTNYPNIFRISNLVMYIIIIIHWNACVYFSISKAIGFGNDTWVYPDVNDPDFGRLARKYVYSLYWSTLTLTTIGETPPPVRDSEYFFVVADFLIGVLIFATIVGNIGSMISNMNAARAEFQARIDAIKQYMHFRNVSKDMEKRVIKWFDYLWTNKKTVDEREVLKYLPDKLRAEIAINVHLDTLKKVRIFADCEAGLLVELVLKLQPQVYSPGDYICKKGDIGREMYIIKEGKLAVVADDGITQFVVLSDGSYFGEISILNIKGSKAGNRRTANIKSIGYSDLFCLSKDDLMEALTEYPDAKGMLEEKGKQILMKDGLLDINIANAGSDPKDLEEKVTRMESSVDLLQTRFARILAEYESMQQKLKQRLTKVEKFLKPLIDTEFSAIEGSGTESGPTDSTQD
# T2 sequence (Q28181 whole entry): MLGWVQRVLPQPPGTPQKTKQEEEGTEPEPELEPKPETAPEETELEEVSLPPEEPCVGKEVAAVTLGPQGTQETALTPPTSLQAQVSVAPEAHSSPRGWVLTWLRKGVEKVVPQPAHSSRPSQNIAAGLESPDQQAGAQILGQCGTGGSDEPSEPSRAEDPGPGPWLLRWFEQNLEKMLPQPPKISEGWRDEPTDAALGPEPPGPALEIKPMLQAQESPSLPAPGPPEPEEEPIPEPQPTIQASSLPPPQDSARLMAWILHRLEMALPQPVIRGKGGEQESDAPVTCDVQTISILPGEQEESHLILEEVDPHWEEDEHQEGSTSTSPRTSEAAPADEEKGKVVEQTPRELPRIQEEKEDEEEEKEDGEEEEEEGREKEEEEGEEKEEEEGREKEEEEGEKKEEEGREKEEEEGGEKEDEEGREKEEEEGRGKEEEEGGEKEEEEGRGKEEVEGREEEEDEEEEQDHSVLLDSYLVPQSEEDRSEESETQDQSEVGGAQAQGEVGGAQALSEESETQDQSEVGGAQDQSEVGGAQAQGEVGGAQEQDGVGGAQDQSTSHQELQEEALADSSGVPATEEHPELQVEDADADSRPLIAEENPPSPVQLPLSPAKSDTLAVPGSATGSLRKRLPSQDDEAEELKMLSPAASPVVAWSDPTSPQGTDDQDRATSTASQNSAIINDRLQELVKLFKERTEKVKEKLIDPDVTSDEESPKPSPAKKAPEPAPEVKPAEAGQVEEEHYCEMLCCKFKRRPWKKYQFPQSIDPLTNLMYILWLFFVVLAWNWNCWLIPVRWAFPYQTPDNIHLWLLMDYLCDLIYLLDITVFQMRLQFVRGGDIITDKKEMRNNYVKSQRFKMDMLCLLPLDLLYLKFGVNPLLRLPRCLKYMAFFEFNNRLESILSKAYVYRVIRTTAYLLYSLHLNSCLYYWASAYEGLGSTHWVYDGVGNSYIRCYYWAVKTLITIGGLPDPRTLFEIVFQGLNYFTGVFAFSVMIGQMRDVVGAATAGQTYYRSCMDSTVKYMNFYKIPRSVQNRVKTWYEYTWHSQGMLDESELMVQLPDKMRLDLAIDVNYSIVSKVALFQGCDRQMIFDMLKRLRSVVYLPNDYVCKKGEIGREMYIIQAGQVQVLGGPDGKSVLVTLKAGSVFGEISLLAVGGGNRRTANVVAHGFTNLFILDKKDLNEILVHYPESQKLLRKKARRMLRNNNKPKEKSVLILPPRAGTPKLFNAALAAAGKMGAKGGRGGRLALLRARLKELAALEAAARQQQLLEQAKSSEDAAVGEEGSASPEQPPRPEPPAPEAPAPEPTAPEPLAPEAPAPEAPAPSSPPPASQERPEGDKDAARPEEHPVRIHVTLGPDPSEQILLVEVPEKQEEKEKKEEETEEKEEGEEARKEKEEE
"H (Hill coefficient), cone CNG channels [1, 3]","H (Hill coefficient), rod CNG channels [2, 3]",efficacy in activating cone CNG channels compared to cGMP ([1]; +100 mV),efficacy in activating rod CNG channels compared to cGMP ([2]; +100 mV),Structure (SMILES),effect on cGMP-activated cone CNG-channel activity [1],also measured
1.5,1.05,,,O=c1c2nc(Br)n([C@@H]3O[C@@H]4COP(=O)(O)O[C@H]4[C@H]3O)c2nc2[nH]c(-c3ccccc3)cn12 [8-Br-PET-cGMP],"under physiological cGMP it produced a potentiation of retinal CNG-channel activity, whereas at higher cGMP it caused minor inhibition","effect on cGMP-activated rod CNG-channel activity [2]: under physiological cGMP it produced a potentiation of retinal CNG-channel activity, whereas at higher cGMP it caused minor inhibition; Emax ([2]; read-out: efficacy of activating rod channel, of maximal activation): < 1%"
,,partial agonist,partial agonist,O=c1c2ncn([C@@H]3O[C@@H]4COP(=O)(O)O[C@H]4[C@H]3O)c2nc2[nH]c(-c3ccccc3)cn12 [PET-cGMP],,
1.13,1.52,lower efficacy than cGMP,lower efficacy than cGMP,Nc1nc2c(ncn2[C@@H]2O[C@@H]3CO[P@@](=O)(S)O[C@H]3[C@H]2O)c(=O)[nH]1 [Rp-cGMPS],did not influence the activity of cone channels,
1.53,1.66,lower efficacy than cGMP,lower efficacy than cGMP,O=c1c2nc(Br)n([C@@H]3O[C@@H]4CO[P@@](=O)(S)O[C@H]4[C@H]3O)c2nc2[nH]c(-c3ccc4ccccc4c3)cn12 [Rp-8-Br-(2-N)ET-cGMPS],,
1.04,1.23,drastically reduced the efficacy,drastically reduced the efficacy,Nc1nc2c(nc(Sc3ccc(Cl)cc3)n2[C@@H]2O[C@@H]3CO[P@@](=O)(S)O[C@H]3[C@H]2O)c(=O)[nH]1 [Rp-8-pCPT-cGMPS],"their activity at physiological cGMP increased, and at higher cGMP levels decreased","maximal CNG-channel activation in rods (CNG-channel in rods): ~ 93%; effect on cGMP-activated rod CNG-channel activity [2]: their activity at physiological cGMP increased, and at higher cGMP levels decreased"
1.84,1.68,lower efficacy than cGMP,lower efficacy than cGMP,O=c1c2ncn([C@@H]3O[C@@H]4CO[P@@](=O)(S)O[C@H]4[C@H]3O)c2nc2[nH]c(-c3ccc4ccccc4c3)cn12 [Rp-(2-N)ET-cGMPS],,
,,,,"COc1ccc([C@H]2Sc3ccccc3N(CCN(C)C)C(=O)[C@H]2OC(C)=O)cc1 (relative stereo) [L-cis-diltiazem, reference compound]",,"block of cone CNG channel activity [1, 4]: ~ 63.4%; block of rod CNG channel activity [2, 4]: ~ 90.5%"
,,,,Nc1nc2c(nc(Br)n2[C@@H]2O[C@@H]3COP(=O)(O)O[C@H]3[C@H]2O)c(=O)[nH]1 [8-Br-cGMP],,"H (Hill coefficient), cone CNG channels ([1]; ligand alone): 1.94; EC50 ([1]; ligand alone): 1.05 µM; H (Hill coefficient), rod CNG channels ([2]; ligand alone): 2.1; EC50 ([2]; ligand alone, concentration-activation relationship, Hill fit, read-out: EC50, rod CNG channels): 6.61 µM"
,,,,"Nc1nc2c(ncn2[C@@H]2O[C@@H]3COP(=O)(O)O[C@H]3[C@H]2O)c(=O)[nH]1 [cGMP, reference compound]",,"deactivation time constant τdeact, cone CNG channels ([1]; 5 µM cGMP alone or 5 µM cGMP + 50 µM inhibitor + 0.1 µM activator, concentration jump): 80.6 ± 4.6 ms; H (Hill coefficient), cone CNG channels ([1]; ligand alone): 1.47; EC50 ([1]; ligand alone): 11.1 µM; H (Hill coefficient), rod CNG channels ([2]; ligand alone): 2.1"
1.64,2.06,lower efficacy than cGMP,lower efficacy than cGMP,"O=C1Cn2c(nc3c(nc(Br)n3[C@@H]3O[C@@H]4CO[P@@](=O)(S)O[C@H]4[C@H]3O)c2=O)N1 [Rp-ß-1,N2-Ac-Br-cGMPS, Rp-ß-1,N^2-Ac-Br-cGMPS]",did not influence the activity of cone channels,
